Where two headings read alike, the source gives them in different places.
Legend:
[1] = tested on: Balb/c mouse asthma model; assay: Balb/c mouse asthma model (ovalbumin), BALF IgE, IL-4, IL-5 and inflammatory cells; type: in vivo, Balb/c mice; conditions: Example 73 10 mg/kg oral, dexamethasone 1 mg/kg intraperitoneal
Method: In detail, five-week-old Balb/c mice were purchased and acclimated for one week, after which the mice were sensitized systemically by intraperitoneal injection with 0.1% ovalbumin (OVA 1 mg/mL, Al(OH)3 20 mg/mL) at 100 μl/mouse on days 0 and 14 from a week after the acclimation. From a week (day 21) after a final systemic sensitization, the compound of Example 73 was orally administered everyday at 10 mg/kg to mice for ten days, and dexamethasone was intraperitoneally administered at 1 mg/kg as a positive control group. In one hour later, 0.2% ovalbumin solution was sprayed with a nebulizer (PARIBoy SX, GmbH, Germany) so as to be inhaled for one hour. In five hours after the final sensitization (day 30), an autopsy was performed, and 1 mL of phosphate buffer solution was flowed through a tracheotomy to collect a bronchoalveolar lavage fluid (BALF). The collected BALF was centrifuged at 3000 rpm for ten minutes, and the supernatant was used to measure bioactive materials (IL-4, IL-5), and pellets were used to measure the number of inflammatory cells. In addition, an IgE concentration in the isolated BALF was measured using IgE enzyme-linked immunosorbent assay (ELISA, Komabiotech), and IL-4 and IL-5 were measured using their respective enzyme-linked immunosorbent assay (ELISA, IL-4: Enzo #ADI-900-043, IL-5: R&D system #M5000).
The results are shown in Table 8 and FIG. 22, and each secretion inhibitory activity was calculated in the same manner as in [Equation 2] of Experimental Example 4.
In addition, the BALF pellets were re-dissolved by adding 0.5 mL of phosphate buffer solution, and then 0.1 mL for each thereof was added to a 96-well plate and centrifuged at 800 rpm for five minutes to attach cells to the bottom (three wells per sample). Then, the cells were stained with Diff Quik staining solution (Sysmex) and the number of cells was measured with […].
The results were shown in FIG. 21, the SPSS program was used for statistical processing, the Levene test was performed for equal-variance test, and the significance test was performed through one-way ANOVA.

SARS-COV-2 = assay: microbe, parasite or virus in culture; type: cell-based; design: SI (Selectivity Index, CC50/IC50): unit not given here; conditions: for SI (Selectivity Index, CC50/IC50): SARS-COV-2, values >50 assumed to be 50; for IC50: Severe acute respiratory syndrome coronavirus 2, Vero cells, 24 hours infection, read-out: SARS-COV-2 inhibition (IC50)
[2] = tested on: IL-5 expression in Th2 cells; assay: Inhibition of IL-5 expression in Th2 cells (ELISA); type: cell-based, Balb/C mice; conditions: Splenocyte; Th2 cells from mouse splenocytes, compound 1 nM; read-out: Inhibitory ability against IL-5 expression (%)
Method: Specifically, after spleens were collected from Balb/C mice, CD4+ T cells were isolated therefrom and were seeded at 1-2×10^6 per well into a 48-well tissue culture plate coated with anti-CD3 (5 ug/ml) and anti-CD28 (1 ug/ml). At this time, the culture medium was incubated with IL-2 (20 ng/ml), IL-4 (100 ng/ml), anti-IFNγ (10 ug/ml), anti-IL12 (10 ug/ml), and a derivative of 1 nM for two days, transferred to a new tissue culture plate, and further cultured for three days to induce differentiation into Th2 cells. After replacing with a new medium containing anti-IFNγ (10 ug/ml), anti-IL12 (10 ug/ml) and a derivative of 1 nM, polarization of Th2 cells was induced using PMA and A23187. After two days of culture, the cells were centrifuged and the culture medium was taken to perform IL-5 ELISA. IL-5 ELISA was performed according to the test method of the kit manufacturer.

in vitro = conditions: African green monkey
[3] = tested on: IL-4 secretion in RBL-2H3 cells; assay: Inhibition of IL-4 secretion in RBL-2H3 cell line (A23187 induced, ELISA); type: cell-based; conditions: Rattus norvegicus
Method: The RBL-2H3 cell line was purchased from the American Type Culture Collection (ATCC #CRL-2256). The cells were diluted at a concentration of 1×10^6 cells/ml in RPMI medium containing 15% fetal bovine serum (FBS) and antibiotics (penicillin at 100 U/mL, streptomycin at 100 μg/mL), distributed at 200 μl/well in a 48 well plate, and cultured in a 37° C., 5% CO2 incubator for 24 hours. In 24 hours later, the cells were pre-treated one hour before with a test drug and AS1517499 (STAT6 inhibitor) as a control drug, and treated with 1 uM of A23187 for six hours to induce an immune response, after which a group not containing the drug was used as a control. In order to measure a secretion level of cytokine IL-4, the medium was collected from the well plate and centrifuged at 125×g for five minutes to remove a residue, and 100 μl of the medium was used to measure an amount of IL-4 secreted from the cells by using IL-4 enzyme-linked immunosorbent assay (ELISA, Komabiotech). A degree of inhibition of cell secretion by the drug was calculated using [Equation 1] below.
First of all, 288 kinds of materials were treated at a single concentration of 10 uM so as to select 60 kinds of materials which inhibit secretion of IL-4 by 75% or more (FIG. 19).
After that, a repeated experiment and a two-concentration (10, 3 uM) test were performed using the selected 60 kinds of materials so as to select the final eight kinds, and the IC50 value was calculated and shown in Table 3.

[4] = tested on: IL-4 secretion in mouse splenocytes; assay: Inhibition of IL-4 secretion in mouse splenocytes (Concanavalin A, ELISA); type: cell-based, Balb/c mice; conditions: for inhibition at 1 µM: Splenocyte, read-out: IL-4 Secretion inhibitory ability (%); for IL-4 pg/ml: Concanavalin A 5 μg/mL, 48 hours
Method: (§1) The isolated splenocytes were diluted at a concentration of 5×10^6 cells/mL in RPMI medium containing 10% fetal bovine serum (FBS) and antibiotics (penicillin at 100 U/mL, streptomycin at 100 μg/mL), distributed at 500 μl/well in a 24 well plate, and cultured in a 37° C., 5% CO2 incubator for 48 hours. When splenocytes were distributed, an immune reaction was induced by treating with 5 μg/mL of Concanavalin A, and at this time, the splenocytes were treated with the materials selected in Experimental Example 3 at a concentration of 1 uM. First, in order to measure Th2 cytokines, the medium was collected from the 24-well plate, and only the supernatant was separated through centrifugation at 800×g for five minutes, after which 100 μl of the supernatant per well was used in an enzyme-linked immunosorbent assay (ELISA, Komabiotech) experiment so as to measure a degree of secretion of Th2 cytokines IL-4 and IL-5. A degree of inhibition against secretion of cytokines by the test material was calculated using [Equation 2] below, and the measurement results are shown in Table 7.

[5] = tested on: IL-5 secretion in mouse splenocytes; assay: Inhibition of IL-5 secretion in mouse splenocytes (Concanavalin A, ELISA); type: cell-based, Balb/c mice; conditions: for inhibition at 1 µM: Splenocyte, read-out: IL-5 Secretion inhibitory ability (%); for IL-5 pg/ml: Concanavalin A 5 μg/mL, 48 hours
Method: as §1

[6] = tested on: SFTS virus (KADGH; NCCP43261); assay: microbe, parasite or virus in culture; type: cell-based, severe fever with thrombocytopenia syndrome virus; conditions: Severe fever with thrombocytopenia syndrome virus, Vero, 24 h, read-out: SFTSV inhibition (IC50, μM)
[7] = RBL-2H3 cells, 1 uM A23187, read-out: IL-4 secretion inhibition IC50
[8] = mouse splenocytes, compound 1 μM

C[C@@H]1C[C@H]2[C@@H]3CCC4=CC(=O)C=C[C@]4(C)[C@@]3(F)[C@@H](O)C[C@]2(C)[C@@]1(O)C(=O)CO [Dexamethasone, dexamethasone, reference compound]
BALF IL-4 Secretion inhibitory ability % [1]: (102.7%) | BALF IL-5 Secretion inhibitory ability % [1]: (50.0%) | BALF IgE Secretion inhibitory ability % [1]: (93.0%) | BALF IL-4 pg/ml ([1]; Mean ± S.D., n = 5, ten days): 32.9 ± 4.534 ^## pg/ml | BALF IL-5 pg/ml ([1]; Mean ± S.D., n = 5, ten days): 15.6 ± 8.07 pg/mL | BALF IgE ng/ml ([1]; Mean ± S.D., n = 5, ten days): 1.3 ± 0.536 ^## ng/ml

COc1cc2cc3c(c(-c4ccc5nccnc5c4)c2cc1OC)C(=O)OC3 [Example 40, 6,7-dimethoxy-9-(quinoxalin-6-yl)naphtho[2,3-c]furan-1(3H)-one]
SI (Selectivity Index, CC50/IC50) (SARS-COV-2): 76.71 | IC50 (SARS-COV-2): 0.65 µM | inhibition at 0.001 µM [2]: 65.1% | CC50 (in vitro): > 50 µM

COc1cc2cc3c(c(-c4cnc(N5CCC[C@H]5C(=O)NCc5ccc(C)o5)nc4)c2cc1OC)C(=O)OC3 [Example 41, (S)-1-(5-(6,7-dimethoxy-3-oxo-1,3-dihydronaphtho[2,3-c]furan-4-yl)pyrimidin-2-yl)-N-((5-methylfuran-2-yl)methyl)pyrrolidin-2-carboxamide]
SI (Selectivity Index, CC50/IC50) (SARS-COV-2): 2.41 | IC50 (SARS-COV-2): 15.2 µM | inhibition at 0.001 µM [2]: 66% | CC50 (in vitro): > 50 µM

CCCOCCN(CCC)c1ncc(-c2c3c(cc4cc(OC)c(OC)cc24)COC3=O)cn1 [Example 42, 6,7-dimethoxy-9-(2-((2-propoxyethyl)(propyl)amino)pyrimidin-5-yl)naphtho[2,3-c]furan-1(3H)-one]
SI (Selectivity Index, CC50/IC50) (SARS-COV-2): 1.00 | IC50 (SARS-COV-2): > 50 µM | inhibition at 0.001 µM [2]: 64.8% | CC50 (in vitro): > 50 µM

COc1cc2cc3c(c(-c4ccc5oc6ccccc6c5c4)c2cc1OC)C(=O)OC3 [Example 43, 9-(dibenzo[b,d]furan-2-yl)-6,7-dimethoxynaphtho[2,3-c]furan-1(3H)-one]
SI (Selectivity Index, CC50/IC50) (SARS-COV-2): 1.00 | IC50 (SARS-COV-2): > 50 µM | inhibition at 0.001 µM [2]: 65.9% | CC50 (in vitro): > 50 µM

COc1cc2cc3c(c(-c4cnc5ccccc5c4)c2cc1OC)C(=O)OC3 [Example 46, 6,7-dimethoxy-9-(quinolin-3-yl)naphtho[2,3-c]furan-1(3H)-one]
SI (Selectivity Index, CC50/IC50) (SARS-COV-2): 512.00 | IC50 (SARS-COV-2): 0.1 µM | inhibition at 0.001 µM [2]: 50.4% | CC50 (in vitro): > 50 µM

COc1cc2cc3c(c(-c4cnc(N[C@H]5CC[C@H](O)CC5)nc4)c2cc1OC)C(=O)OC3 [Example 47, 9-(2-(((1r,4r)-4-hydroxycyclohexyl)amino)pyrimidin-5-yl)-6,7-dimethoxynaptho[2,3-c]furan-1(3H)-one]
SI (Selectivity Index, CC50/IC50) (SARS-COV-2): 1.00 | IC50 (SARS-COV-2): > 50 µM | inhibition at 0.001 µM [2]: 61% | CC50 (in vitro): > 50 µM

CCCCCCOCCN(CCCCCC)c1ncc(-c2c3c(cc4cc(OC)c(OC)cc24)COC3=O)cn1 [Example 48, 9-(2-(hexyl(2-(hexyloxy)ethyl)amino)pyrimidin-5-yl)-6,7-dimethoxynaphtho[2,3-c]furan-1(3H)-one]
SI (Selectivity Index, CC50/IC50) (SARS-COV-2): 2.55 | IC50 (SARS-COV-2): 19.6 µM | inhibition at 0.001 µM [2]: 58.1% | CC50 (in vitro): > 50 µM

COc1cc2cc3c(c(-c4cnc(NCc5ccc(C)o5)nc4)c2cc1OC)C(=O)OC3 [Example 50, 6,7-dimethoxy-9-(2-(((5-methylfuran-2-yl)methyl)amino)pyrimidin-5-yl)naphtho[2,3-c]furan-1(3H)-one]
SI (Selectivity Index, CC50/IC50) (SARS-COV-2): 5.27 | IC50 (SARS-COV-2): 9.49 µM | inhibition at 0.001 µM [2]: 61.5% | CC50 (in vitro): > 50 µM

COc1cc2cc3c(c(-c4cnc(N5CCCC(C)C5)nc4)c2cc1OC)C(=O)OC3 (stereo not shown) [Example 59, 6,7-dimethoxy-9-(2-(3-methylpiperidin-1-yl)pyrimidin-5-yl)naphtho[2,3-c]furan-1(3H)-one]
SI (Selectivity Index, CC50/IC50) (SARS-COV-2): 20.79 | IC50 (SARS-COV-2): 2.4 µM | IC50 [3, 7]: 2.35 µM | inhibition at 1 µM [4, 8]: 79% | IL-4 pg/ml [4, 8]: 71.6 pg/mL | inhibition at 1 µM [5, 8]: 44.3% | IL-5 pg/ml [5, 8]: 51.9 pg/mL | CC50 (in vitro): > 50 µM

COc1cc2cc3c(c(-c4cnc(N5CCSCC5)nc4)c2cc1OC)C(=O)OC3 [Example 63, 6,7-dimethoxy-9-(2-thiomorpholinopyrimidin-5-yl)naphtho[2,3-c]furan-1(3H)-one]
SI (Selectivity Index, CC50/IC50) (SARS-COV-2): 23.56 | IC50 (SARS-COV-2): 2.12 µM | IC50 [3, 7]: 4.23 µM | inhibition at 1 µM [4, 8]: 99.6% | IL-4 pg/ml [4, 8]: 1.3 pg/mL | inhibition at 1 µM [5, 8]: 81.6% | IL-5 pg/ml [5, 8]: 17.2 pg/mL | CC50 (in vitro): > 50 µM

CCCCN(C)c1ncc(-c2c3c(cc4cc(OC)c(OC)cc24)COC3=O)cn1.Cl [Example 76, 9-(2-(butyl(methyl)amino)pyrimidin-5-yl)-6,7-dimethoxynaphtho[2,3-c]furan-1(3H)-one hydrochloride]
SI (Selectivity Index, CC50/IC50) (SARS-COV-2): 270.89 | IC50 ([3]; RBL-2H3, read-out: IL-4 secretion inhibition IC50 (μM)): 4.05 µM | inhibition at 1 µM ([4]; Mus musculus): 99.6% | IL-4 pg/ml [4, 8]: 1.2 pg/mL | inhibition at 1 µM ([5]; Mus musculus): 85.6% | IL-5 pg/ml [5, 8]: 13.4 pg/mL

NC(=O)c1nc(F)c[nH]c1=O [Favipiravir]
IC50 [6]: 278 µM

Reference: patent US20240368104A1, “Novel Dialkoxynaphtho[2,3-C]Furan-1(3H)-One Derivatives and Pharmaceutical Composition For Preventing or Treating Respiratory Disease or SARS-COV-2 Infection Disease, Comprising Same” (priority 2021, published 2024)
